# Source: ChEMBL document CHEMBL5154636, “Discovery of STAT3 and Histone Deacetylase (HDAC) Dual-Pathway Inhibitors for the Treatment of Solid Cancer” (J Med Chem, 2021)
# Active and inactive are the calls of the source. No cut-off for these calls is given here.
# Assays:
# [1] = target: T1, Signal transducer and activator of transcription 3 (Homo sapiens, UniProt P40763); experiment: Binding affinity to recombinant GST tagged STAT3 (unknown origin) assessed as association constant at equilibrium
# MDA-MB-231 [2] = experiment: Induction of apoptosis in human MDA-MB-231 cells assessed as viable cells at 2 uM incubated for 24 hrs by Annexin-V/FITC and PI staining based flow cytometry analysis (reference value: 97.8%); assay type: functional; details: read-out: Activity
# [3] = target: T1, Signal transducer and activator of transcription 3; experiment: Inhibition of STAT3 phosphorylation at Y705 residue in human MDA-MB-231 cells incubated for 24 hrs by Western blot assay; assay type: cell-based; details: dose 0.5-5 µM
# MDA-MB-231 [4] = experiment: Cytotoxicity against human MDA-MB-231 cells assessed as reduction in cell viability incubated for 48 hrs by MTT assay; assay type: functional, cell-based; details: MDA-MB-231, 48 h
# L02 = experiment: Cytotoxicity against human L02 cells assessed as reduction in cell viability at 32 uM incubated for 48 hrs by MTT assay relative to control; assay type: toxicity, cell-based; details: l02, 48 h
# [5] = Half life in Sprague-Dawley rat at 20 mg/kg, po measured upto 24 hrs by LC-MS/MS analysis; assay type: ADME, organism-based; details: in vivo
# 4T1 [6] = experiment: Antitumor activity against mouse 4T1 cells allografted in BALB/c mouse assessed as reduction in tumor weight at 30 mg/kg, ip qd for 21 days by vernier caliper method relative to control; assay type: functional; design: scale not given: the % may be the effect or the level left; details: time 21 day
# [7] = target: Histone deacetylase (Homo sapiens) (UniProt Q13547+O15379+Q9UBN7+Q92769+Q9UQL6+Q8WUI4+Q9BY41+Q96DB2+P56524+Q9UKV0+Q969S8); experiment: Inhibition of HDAC in human MDA-MB-231 cells assessed as increase in alpha tubulin acetylation incubated for 24 hrs by Western blot analysis; assay type: cell-based; details: dose 0.5-5 µM, DDE = dose-dependent effect
# MDA-MB-231 [8] = experiment: Induction of apoptosis in human MDA-MB-231 cells assessed as increase in cleaved capase-7 level at 0.5 to 5 uM incubated for 24 hrs by Western blot analysis; assay type: functional, cell-based; details: dose 0.5-5 µM
# MDA-MB-231 [9] = experiment: Induction of apoptosis in human MDA-MB-231 cells assessed as increase in cleaved capase-3 level at 0.5 to 5 uM incubated for 24 hrs by Western blot analysis; assay type: functional, cell-based; details: dose 0.5-5 µM
# MDA-MB-231 [10] = experiment: Induction of apoptosis in human MDA-MB-231 cells assessed as late apoptotic cells at 5 uM incubated for 24 hrs by Annexin-V/FITC and PI staining based flow cytometry analysis (reference value: 0.7%); assay type: functional
# MDA-MB-231 [11] = experiment: Antimigratory activity against human MDA-MB-231 cells assessed as inhibition of cell migration at 5 uM after 24 hrs by scratch wound healing assay based phase contrast microscopy analysis; assay type: functional
# MDA-MB-231 [12] = experiment: Induction of apoptosis in human MDA-MB-231 cells assessed as late apoptotic cells at 10 uM incubated for 24 hrs by Annexin-V/FITC and PI staining based flow cytometry analysis (reference value: 0.7%); assay type: functional
# MDA-MB-231 [13] = experiment: Induction of apoptosis in human MDA-MB-231 cells assessed as viable cells at 5 uM incubated for 24 hrs by Annexin-V/FITC and PI staining based flow cytometry analysis (reference value: 97.8%); assay type: functional; details: read-out: Activity
# MDA-MB-231 [14] = experiment: Induction of apoptosis in human MDA-MB-231 cells assessed as early apoptotic cells at 10 uM incubated for 24 hrs by Annexin-V/FITC and PI staining based flow cytometry analysis (reference value: 1.4%); assay type: functional
# [15] = Toxicity in BALB/c mousee assessed as change in body weight at 15 to 30 mg/kg, ip qd for 21 days; assay type: organism-based; details: mouse, in vivo, 504 h, dose 15-30 mg/kg, time 21 day
# [16] = Acute toxicity in po dosed ICR mouse assessed as maximum tolerated dose measured after 7 days; assay type: organism-based; details: in vivo, time 7 day
# MDA-MB-231 [17] = experiment: Induction of apoptosis in human MDA-MB-231 cells assessed as early apoptotic cells at 5 uM incubated for 24 hrs by Annexin-V/FITC and PI staining based flow cytometry analysis (reference value: 1.4%); assay type: functional
# 4T1 [18] = experiment: Antitumor activity against mouse 4T1 cells allografted in BALB/c mouse assessed as reduction in tumor volume at 30 mg/kg, ip qd for 21 days and measured every 3 days by vernier caliper method relative to control; assay type: functional; design: scale not given: the % may be the effect or the level left; details: time 21 day
# [19] = Oral bioavailability in Sprague-Dawley rat at 20 mg/kg measured upto 24 hrs by LC-MS/MS analysis; assay type: ADME, organism-based; details: in vivo
# MDA-MB-231 [20] = experiment: Effect on STAT3 in human MDA-MB-231 cells assessed as […] phosphorylation at 10 uM incubated for 24 hrs by Western blot analysis; assay type: functional, cell-based
# MDA-MB-231 [21] = experiment: Induction of apoptosis in human MDA-MB-231 cells assessed as necrotic cells at 5 uM incubated for 24 hrs by Annexin-V/FITC and PI staining based flow cytometry analysis (reference value: 0.0%); assay type: functional
# Histone deacetylase = experiment: Inhibition of HDAC in human MDA-MB-231 cells incubated for 24 hrs by fluorometric assay; assay type: cell-based
# [22] = target: T1, Signal transducer and activator of transcription 3; experiment: Binding affinity to recombinant GST tagged STAT3 (unknown origin) assessed as dissociation constant
# MDA-MB-231 [23] = experiment: Induction of apoptosis in human MDA-MB-231 cells assessed as early apoptotic cells at 2 uM incubated for 24 hrs by Annexin-V/FITC and PI staining based flow cytometry analysis (reference value: 1.4%); assay type: functional
# MDA-MB-231 [24] = experiment: Induction of apoptosis in human MDA-MB-231 cells assessed as necrotic cells at 2 uM incubated for 24 hrs by Annexin-V/FITC and PI staining based flow cytometry analysis (reference value: 0.0%); assay type: functional
# MDA-MB-231 [25] = experiment: Induction of apoptosis in human MDA-MB-231 cells assessed as late apoptotic cells at 2 uM incubated for 24 hrs by Annexin-V/FITC and PI staining based flow cytometry analysis (reference value: 0.7%); assay type: functional
# 4T1 [26] = experiment: Antitumor activity against mouse 4T1 cells allografted in BALB/c mouse assessed as reduction in tumor volume at 15 mg/kg, ip qd for 21 days and measured every 3 days by vernier caliper method relative to control; assay type: functional; design: scale not given: the % may be the effect or the level left; details: time 21 day
# [27] = target: T2, Histone deacetylase 11 (Homo sapiens) (UniProt Q96DB2); experiment: Inhibition of recombinant human HDAC11 at 10 uM using Boc-Lys(TFA)-AMC as substrate by fluorescence assay relative to control
# T2 sequence (whole entry): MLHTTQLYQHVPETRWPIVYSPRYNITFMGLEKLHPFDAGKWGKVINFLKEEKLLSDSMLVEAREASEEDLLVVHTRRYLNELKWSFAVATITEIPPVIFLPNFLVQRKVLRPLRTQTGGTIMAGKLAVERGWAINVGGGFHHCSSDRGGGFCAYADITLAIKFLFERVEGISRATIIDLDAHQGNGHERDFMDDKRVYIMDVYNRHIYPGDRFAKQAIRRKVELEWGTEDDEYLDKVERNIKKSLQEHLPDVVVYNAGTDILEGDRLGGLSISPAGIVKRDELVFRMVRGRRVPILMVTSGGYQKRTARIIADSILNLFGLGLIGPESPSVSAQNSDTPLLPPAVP
# T1 sequence (P40763 whole entry): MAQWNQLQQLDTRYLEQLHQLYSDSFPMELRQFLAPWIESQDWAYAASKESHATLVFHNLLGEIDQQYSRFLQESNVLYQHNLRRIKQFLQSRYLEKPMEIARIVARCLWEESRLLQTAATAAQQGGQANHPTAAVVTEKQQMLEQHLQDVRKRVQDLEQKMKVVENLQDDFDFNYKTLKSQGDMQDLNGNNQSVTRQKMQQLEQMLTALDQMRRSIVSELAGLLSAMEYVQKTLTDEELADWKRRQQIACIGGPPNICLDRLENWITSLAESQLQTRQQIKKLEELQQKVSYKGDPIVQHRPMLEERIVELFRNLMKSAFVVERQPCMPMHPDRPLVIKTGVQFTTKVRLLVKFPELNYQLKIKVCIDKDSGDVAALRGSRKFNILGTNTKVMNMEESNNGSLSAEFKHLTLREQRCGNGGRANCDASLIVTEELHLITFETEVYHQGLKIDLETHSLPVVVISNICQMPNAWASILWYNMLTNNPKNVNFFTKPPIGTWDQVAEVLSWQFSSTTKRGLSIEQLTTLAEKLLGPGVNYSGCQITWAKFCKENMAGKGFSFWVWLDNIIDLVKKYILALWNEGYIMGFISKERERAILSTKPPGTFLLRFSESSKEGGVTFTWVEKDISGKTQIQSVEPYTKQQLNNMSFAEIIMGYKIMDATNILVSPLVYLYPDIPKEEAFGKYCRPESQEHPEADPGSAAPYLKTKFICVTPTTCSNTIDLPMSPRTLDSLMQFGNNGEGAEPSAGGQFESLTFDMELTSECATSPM
structure (smiles),measurement,setting,value
COc1cc(/C=C/c2ccc(OCCCCCCC(=O)NO)cc2)cc(OC)c1,Ka,[1],451000 M⁻¹ s⁻¹
same,viability at 2 µM,MDA-MB-231 [2],89.3%
same,inhibition,[3],Active
same,IC50,MDA-MB-231 [4],0.78 µM
same,Activity,L02,32%
same,half-life,[5],52.8 min
same,Activity,4T1 [6],62%
same,Activity,[7],Dde
same,Activity,MDA-MB-231 [8],Active
same,Activity,MDA-MB-231 [9],Active
same,Activity,MDA-MB-231 [10],3.9%
same,Activity,MDA-MB-231 [11],Active
same,Activity,MDA-MB-231 [12],19.7%
same,viability at 5 µM,MDA-MB-231 [13],80.8%
same,Activity,MDA-MB-231 [14],39.6%
same,Activity,[15],Non-Toxic
same,MTD at 168 h,[16],> 400 mg/kg
same,Activity,MDA-MB-231 [17],15.2%
same,Activity,4T1 [18],64%
same,bioavailability,[19],5.81%
same,Activity,MDA-MB-231 [20],Active
same,Activity,MDA-MB-231 [21],0.2%
same,IC50,Histone deacetylase,0.02315 µM
same,Kd,[22],0.01516 s⁻¹
same,Kd,[22]; read-out: Kd,0.0336 µM
same,Activity,MDA-MB-231 [23],4.9%
same,Activity,MDA-MB-231 [24],0.1%
same,Activity,MDA-MB-231 [25],5.7%
same,Activity,4T1 [26],54%
same,inhibition,[27],37%
